{"source": "BindingDB's records for doi:10.7270/Q2F769WQ", "about": "(University of Pittsburgh, 2007)"}
{"biological_target": "T1, Dual specificity protein phosphatase 1 (Homo sapiens, UniProt P28562)", "T1 sequence (P28562 whole entry)": "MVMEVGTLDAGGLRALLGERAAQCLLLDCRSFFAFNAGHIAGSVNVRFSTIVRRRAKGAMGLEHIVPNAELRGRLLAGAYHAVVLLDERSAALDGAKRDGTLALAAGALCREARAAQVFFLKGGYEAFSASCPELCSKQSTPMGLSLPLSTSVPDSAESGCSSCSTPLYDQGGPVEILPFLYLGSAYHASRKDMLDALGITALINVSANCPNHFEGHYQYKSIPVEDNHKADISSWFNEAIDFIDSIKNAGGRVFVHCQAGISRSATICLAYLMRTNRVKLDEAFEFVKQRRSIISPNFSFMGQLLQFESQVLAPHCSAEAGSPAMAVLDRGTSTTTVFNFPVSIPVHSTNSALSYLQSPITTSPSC", "test": "MKP-1 phosphatase inhibitor potency, dose response, biochemical, in vitro, confirmation (AID 551)", "conditions": "pH 7; 22 °C", "units": {"IC50": "µM"}}
{"smiles": "CCCn1nnc(NC(=O)c2cc(Br)cc(Br)c2OC)n1", "note": "[3,5-bis(bromanyl)-2-methoxy-N-(2-propyl-1,2,3,4-tetrazol-5-yl)benzamide]", "IC50": "> 50"}
{"smiles": "[O-]/[N+](=C\\c1ccncc1)c1ccc(Br)cc1", "note": "[MLS000109219]", "IC50": "> 50"}
{"smiles": "CC(C)Cn1c(N)c(C(=O)COC(=O)c2cc(-c3ccco3)nc3ccccc23)c(=O)n(C)c1=O", "note": "[2-(2-furanyl)-4-quinolinecarboxylic acid [2-[4-amino-1-methyl-3-(2-methylpropyl)-2,6-dioxo-5-pyrimidinyl]-2-oxoethyl] ester]", "IC50": 23.1}
{"smiles": "CCCCNC(=O)CSc1nnc(-c2ccco2)n1C", "note": "[MLS000033335]", "IC50": "> 50"}
{"smiles": "CCn1nc(-c2ccccc2)nc2c(=O)n(C)c(=O)nc1-2", "note": "[1-Ethyl-6-methyl-3-phenyl-1H-pyrimido[5,4-e][1,2,4]triazine-5,7-dione]", "IC50": 0.197}
{"smiles": "C=CCn1c(NC(=O)c2ccccc2Cl)c(C#N)c2nc3ccccc3nc21", "note": "[2-chloro-N-(3-cyano-1-prop-2-enyl-2-pyrrolo[3,2-b]quinoxalinyl)benzamide]", "IC50": "> 50"}
{"smiles": "COC(=O)N(c1ccc(OC)cc1)P1(=S)OCCC(C)O1", "note": "(stereo unspecified) [MLS000043492]", "IC50": "> 50"}
{"smiles": "CC12CC(NC(=O)N1c1ccc(C(=O)N3CCN(c4ccc(F)cc4)CC3)cc1)c1ccccc1O2", "note": "(stereo unspecified) [SMR000026617]", "IC50": "> 50"}
{"smiles": "O=C1C=C(NCc2ccc(Cl)c(Cl)c2)CC1", "note": "[3-[(3,4-dichlorobenzyl)amino]cyclopent-2-en-1-one]", "IC50": "> 50"}
{"smiles": "COc1cc(/C=C(/C#N)c2ccc(F)cc2)ccc1OCc1ccc(C(=O)O)o1", "note": "[5-({4-[2-cyano-2-(4-fluorophenyl)vinyl]-2-methoxyphenoxy}methyl)-2-furoic acid]", "IC50": "> 50"}
{"smiles": "COCCCn1c(N)c(C(=O)NCCC(C)C)c2nc3ccccc3nc21", "note": "[MLS000041744]", "IC50": 26.2}
{"smiles": "O=C(CSc1nc2ccccc2c(=O)[nH]1)Nc1ccc(S(=O)(=O)N2CCCC2)cc1", "note": "[2-[(4-oxo-1H-quinazolin-2-yl)sulfanyl]-N-(4-pyrrolidin-1-ylsulfonylphenyl)acetamide]", "IC50": "> 50"}
{"smiles": "Nc1nc2c(s1)CCc1c-2cnn1-c1ccccc1", "note": "[MLS000085948]", "IC50": "> 50"}
{"smiles": "CC(C)Sc1nc2sc3c(c2c2nnc(SCC(=O)NCc4ccco4)n12)CCCC3", "note": "[MLS000082957]", "IC50": 10.4}
{"smiles": "[O-]/[N+](=C/c1ccc(F)cc1)c1ccccc1", "note": "[(E)-(4-fluorobenzylidene)(phenyl)azane oxide]", "IC50": "> 50"}
{"smiles": "CCCCOc1ccccc1P(=O)(O)CP(=O)(c1ccccc1)c1ccccc1", "note": "[(2-butoxyphenyl)-(diphenylphosphorylmethyl)phosphinic acid]", "IC50": "> 50"}
{"smiles": "CCCCn1c(SCC(=O)c2ccc(OC)cc2OC)nc2cc(S(N)(=O)=O)ccc21", "note": "[1-butyl-2-[2-(2,4-dimethoxyphenyl)-2-oxidanylidene-ethyl]sulfanyl-benzimidazole-5-sulfonamide]", "IC50": "> 50"}
{"smiles": "CCCSc1nnc(NC(=O)c2sc3nc(-c4cccs4)ccc3c2N)s1", "note": "[3-amino-N-(5-propylsulfanyl-1,3,4-thiadiazol-2-yl)-6-thiophen-2-ylthieno[2,3-b]pyridine-2-carboxamide]", "IC50": 12.4}
{"smiles": "COC(=O)CCC(=O)Oc1ccc(OC(=O)CCC(=O)OC)cc1", "note": "[4-O-[4-(4-methoxy-4-oxobutanoyl)oxyphenyl] 1-O-methyl butanedioate]", "IC50": "> 50"}
{"smiles": "COc1ccc2noc3c2c1C(=O)c1ccccc1-3", "note": "[MLS000106874]", "IC50": 16.1}
{"smiles": "Cc1ccc(C)n1-c1cccc(C(=O)O)c1", "IC50": 12}
{"smiles": "O=C(c1cccs1)c1no[n+]([O-])c1C(=O)c1cccs1", "note": "[(5-oxidanidyl-4-thiophen-2-ylcarbonyl-1,2,5-oxadiazol-5-ium-3-yl)-thiophen-2-yl-methanone]", "IC50": 3.49}
{"smiles": "Cc1nn(C(C)C(=O)N2CCCCC2)c(=O)c2c1sc1ccccc12", "note": "(stereo unspecified) [2-(2-keto-1-methyl-2-piperidino-ethyl)-4-methyl-benzothiopheno[2,3-d]pyridazin-1-one]", "IC50": "> 50"}
{"smiles": "O=C(OC1CCCCC1)c1ccc2c(c1)C1C=CCC1C(C(=O)O)N2", "note": "(stereo unspecified) [SMR000019385]", "IC50": 7.66}
{"smiles": "Cn1ncnc2c(=O)n(C)c(=O)nc1-2", "IC50": 0.184}
{"smiles": "CCOC(=O)c1ccc(Nc2c3[nH]cccc-3c(=O)n2Cc2ccc(F)cc2)cc1", "note": "[ethyl 4-[[6-[(4-fluorophenyl)methyl]-5-oxo-7H-pyrrolo[3,4-b]pyridin-7-yl]amino]benzoate]", "IC50": "> 50"}
{"smiles": "CCOC(=O)N1CCC(NC(=O)c2cccn3c(=O)c4cc(Br)ccc4nc23)CC1", "note": "[4-[(2-bromo-11-keto-pyrido[2,1-b]quinazoline-6-carbonyl)amino]piperidine-1-carboxylic acid ethyl ester]", "IC50": "> 50"}
{"smiles": "CCn1c(=O)cc(SCC(=O)N2CCN(Cc3ccc4c(c3)OCO4)CC2)c2ccccc21", "note": "[1-ethyl-4-[[2-keto-2-(4-piperonylpiperazino)ethyl]thio]carbostyril]", "IC50": "> 50"}
{"smiles": "COc1ccc(C(=O)CSc2nnc(CNC(=O)c3ccc(OC)c(OC)c3)n2C)cc1", "note": "[3,4-dimethoxy-N-[(5-{[2-(4-methoxyphenyl)-2-oxoethyl]thio}-4-methyl-4H-1,2,4-triazol-3-yl)methyl]benzamide]", "IC50": "> 50"}
{"smiles": "[O-]/[N+](=C\\c1ccc(OC(F)F)cc1)c1ccccc1", "note": "[1-[4-(difluoromethoxy)phenyl]-N-phenylmethanimine oxide]", "IC50": "> 50"}
{"smiles": "[O-]/[N+](=C\\c1ccncc1)c1ccccc1", "IC50": 49.9}
{"smiles": "COC(=O)CCCc1nc2ccccc2s1", "note": "[4-(1,3-benzothiazol-2-yl)butanoic acid methyl ester]", "IC50": "> 50"}
{"smiles": "Cc1cccc(N2CCN(C(=O)Cc3c(C(=O)O)[nH]c4ccc(Cl)cc34)CC2)c1C", "note": "[5-chloranyl-3-[2-[4-(2,3-dimethylphenyl)piperazin-1-yl]-2-oxidanylidene-ethyl]-1H-indole-2-carboxylic acid]", "IC50": 25.8}
{"smiles": "c1ccc(SCc2nc(-c3ccncc3)no2)cc1", "note": "[4-{5-[(phenylthio)methyl]-1,2,4-oxadiazol-3-yl}pyridine]", "IC50": "> 50"}
{"smiles": "N#Cc1c(N)sc(=S)c2c1CCN(Cc1ccccc1)C2", "note": "[3-Amino-7-benzyl-1-thioxo-5,6,7,8-tetrahydro-1H-thiopyrano[3,4-c]pyridine-4-carbonitrile]", "IC50": 1.13}
{"smiles": "Cc1ccc(NC(=O)COC(=O)c2ccc3c(c2)NC(=O)C2CCCN32)cc1C", "note": "(stereo unspecified) [4-keto-2,3,3a,5-tetrahydro-1H-pyrrolo[1,2-a]quinoxaline-7-carboxylic acid [2-(3,4-dimethylanilino)-2-keto-ethyl] ester]", "IC50": "> 50"}
{"smiles": "CCc1ccc(NC(=O)CSc2nc3ccccc3c(=O)n2CCN2CCOCC2)cc1", "note": "[MLS000095236]", "IC50": 45.8}
{"smiles": "CC(C)(C)N1C(=O)Cc2c1nc(N)c1c(N)nc(N3CCCCC3CO)c(C#N)c21", "note": "(stereo unspecified) [5,6-bis(azanyl)-3-tert-butyl-8-[2-(hydroxymethyl)piperidin-1-yl]-2-oxidanylidene-1H-pyrrolo[2,3-c][2,7]naphthyridine-9-carbonitrile]", "IC50": "> 50"}
{"smiles": "Cc1ccc(NC(=O)CSc2nnc(-c3ccc(S(=O)(=O)N4CCCC4)cc3)o2)cc1C", "note": "[MLS000071775]", "IC50": "> 50"}
{"smiles": "Cc1cccc(N2CCN(C(=O)c3cc4c(=O)[nH]c5ccccc5c4n3C)CC2)c1C", "note": "[2-{[4-(2,3-dimethylphenyl)piperazin-1-yl]carbonyl}-1-methyl-1,5-dihydro-4H-pyrrolo[3,2-c]quinolin-4-one]", "IC50": "> 50"}
{"smiles": "COc1ccc(-n2c(NC(=O)c3ccco3)c(C#N)c3nc4ccccc4nc32)cc1", "note": "[MLS000079925]", "IC50": 15.3}
